From US10471028B2, “Small molecule efflux pump inhibitors” (UNIVERSITY OF ROCHESTER, priority 2014, dated 2019)
Where two headings read alike, the source gives them in different places.

Experiments:
A. baumannii = assay: Antibiotic susceptibility assay in LB medium or 100% human serum; format: cell-based, Acinetobacter baumannii
Protocol: The antibiotic susceptibility of A. baumannii and Pseudomonas aeruginosa grown in either LB medium or 100% human serum was measured according to the method described below. Briefly, the indicated bacterial species/strain was grown overnight in LB medium, diluted into fresh medium (1:100 dilution) and grown to mid-exponential phase (OD600nm=0.4 to 0.5) at 37° C. with aeration. […] To quantify the antimicrobial effects of each antibiotic toward bacteria grown in LB or serum, well constitutes were serially diluted in PBS and plated on LB agar to enumerate the CFU mL^−1.

[1] = system: A. baumannii strain 98-37-09; assay: Ethidium bromide efflux assay; format: cell-based, Acinetobacter baumannii; details: for ethidium bromide fluorescent signal in comparison to mock treated cells: 10 μg ml^−1 ethidium bromide, 90 min; for cellular ethidium fluorescence compared with PAβN: time course after treatment
Protocol: To distinguish whether the antimicrobial potentiation of ABEPI1 and ABEPI2 correlates with the inhibition of A. baumannii's efflux properties, conventional ethidium bromide efflux assays were performed in the presence and absence of each compound. The assay is predicated upon the fluorescent properties of ethidium bromide during intercalation into cellular nucleic acids, whereby efflux active cells display limited intracellular ethidium bromide accumulation and, consequently, low fluorescence. Conversely, efflux inhibition leads to increased cellular ethidium bromide levels and correspondingly high fluorescence relative to efflux proficient cells. Bacterial ethidium bromide efflux activity assays were used to measure the efflux inhibitory properties of compounds of interest. For assays, an overnight culture of A. baumannii strain 98-37-09 was diluted (1:100) into 100% human serum or fresh LB and grown to mid-exponential phase. Cell pellets were collected via centrifugation 900×g for 20 minutes, washed 3× with 20 mM sodium phosphate buffer and resuspended to an OD600nm=0.2 in sodium phosphate buffer. Approximately 1×10^6 CFU were loaded into individual wells of 96-well white-bottom plates, mixed with 10 μg ml^−1 ethidium bromide, and ethidium fluorescence (excitation 530nm; emission 600nm) was measured every 5 min for 90 min on a Spectramax5 fluorimeter (Molecular Devices, Sunnyvale, Calif.). To determine if the putative efflux pump inhibitors affected ethidium bromide efflux, cells were treated with the indicated amount of compound of interest or the efflux pump inhibitor, PaβN, two minutes after fluorescence monitoring began.

[2] = system: A. baumannii strain 98-37-09; assay: MEC determination: potentiation of minocycline toward serum grown A. baumannii; format: cell-based, Acinetobacter baumannii; details: for Log-reduction Colony Forming Units (ml^−1): 1×MEC of compound plus minocycline in serum, versus minocycline alone, plating; for MEC: lowest concentration inhibiting growth in 100% human serum with 0.5 μg ml^−1 minocycline, 48 hr
[3] = system: A. baumannii strain 98-37-09; assay: Cellular accumulation of minocycline (HPLC, triple-quadrupole MS); format: cell-based, Acinetobacter baumannii; details: human serum with 0.5 μg mL^−1 minocycline plus test compound (0.5×MEC, 1×MEC), 48 hours
human HepG2 cells = assay: MTT cell viability (cytotoxicity) assay
Protocol: To distinguish putatively non-toxic from human cytotoxic compounds, conventional 3-(4,5-dimethylthiazol-2yl)-2,5-diphenyltetrazolium bromide (MTT) cell viability assays (American Type Culture Collection, Manassas, Va.) were performed for each compound of interest at 1× and 4× their MEC. Briefly, human HepG2 cells were grown to approximately 1×10^6 cells per well in Dulbecco's Modified Eagle Media supplemented with 10% fetal bovine serum (Invitrogen, Carlsbad, Calif.) then treated with 1× or 4× the MEC of the indicated […] Cell viability was measured following the addition of the tetrazolium salt (MTT) as per the manufacturer's recommendations; cells challenged with 50 ug ml^−1 Mitomycin C (Sigma Aldrich) and mock-treated cells served as positive and negative controls, respectively.

[4] = system: A. baumannii strain 98-37-09; assay: Potentiation of ciprofloxacin toward serum grown A. baumannii; format: cell-based, Acinetobacter baumannii; details: for Potentiate Ciprofloxacin A. baumannii (value in parentheses: log reduction of viability): 1×MEC with ciprofloxacin versus ciprofloxacin alone, plating; for Potentiate Ciprofloxacin A. baumannii: 100% human serum, 0.125 μg ml^−1 ciprofloxacin, 1× or 2× MEC, 48 hour, growth inhibition
Description: As a means to further prioritize non-toxic compounds of interest based on their therapeutic promise, it was considered that broad spectrum antimicrobial efflux pump inhibitors may be more clinically valuable than narrow-spectrum agents that only potentiate the activity of a limited number of antibiotics or that display activity toward a single bacterial species. […] To do so, 1×10^5 A. baumannii strain 98-37-09 were inoculated into individual wells of microtiter plates containing 100% human serum supplemented with 0.125 μg ml^−1 ciprofloxacin and 0, 1×, or 2× the compound's MEC, as defined by the lowest concentration needed to potentiated minocycline's antimicrobial effects (above). Plates were incubated for 48 hour at which point each compound's ability to potentiate ciprofloxacin was measured, as growth inhibition.

P. aeruginosa PA01 = assay: Potentiation of ciprofloxacin toward serum grown P. aeruginosa; format: cell-based, Pseudomonas aeruginosa; details: PA01 in 100% human serum, 1×MEC, ciprofloxacin 0 to 2 μg ml^−1
Protocol: To do so, PA01 was inoculated into individuals wells of a microtiter plate containing 100% human serum supplemented with 1×MEC of test compound and increasing concentrations of ciprofloxacin (0 to 2 μg ml^−1) and cell viability was measured.

[5] = system: mammalian calcium channel; assay: Mammalian calcium channel assay (Fluo-4); format: cell-based, human; details: HEK 293T, carbachol treatment alone
Description: Many laboratory bacterial efflux inhibitor tool compounds cannot be used in the clinical setting because they limit mammalian ion channel activity. […] Thus, we measured the effects of ABEPI1 and ABEPI2 on mammalian calcium channel functions using Fluo-4 Direct Calcium Channel Assay kits (Life Technologies, Carlsbad, Calif.), in which the dye Fluo-4 was used to measure changes in mammalian cytoplasmic Ca^2+ levels in response to the calcium channel stimulator, carbachol, in the absence and presence of test compound. […] Next, 2× Fluo-4 dye supplemented with Probenecid (5 mM) was added to each well and allowed to equilibrate for 1 hr at 37° C. To determine whether ABEPI1 or ABEPI2 affect Ca^2+ channel activity, Fluo-4 fluorescence measures (excitation 495nm; emission 516nm) were then taken every second for 15 sec.

Compound | ethidium bromide fluorescent signal in comparison to mock treated cells [1] | Log-reduction Colony Forming Units (ml^−1) [2] [log] | MEC [2] [µg/mL] | Minocylcine Per Cell (femtomoles cell^−1) [3] [femtomoles cell^−1] | Potentiate Ciprofloxacin A. baumannii (value in parentheses: log reduction of viability) [4] | Potentiate Ciprofloxacin A. baumannii [4] | Potentiate Ciprofloxacin P. aeruginosa (P. aeruginosa PA01) | also measured
O=C(O)c1cn(C2CC2)c2cc(N3CCNCC3)c(F)cc2c1=O [ciprofloxacin] | – | – | – | – | – | – | – | susceptibility of serum grown versus LB grown cells (A. baumannii; strain 98-37-09, ciprofloxacin ≤1 μg ml^−1): significantly (P<0.001) less susceptible
CN(C)[C@@H]1C(O)=C(C(N)=O)C(=O)[C@@]2(O)C(O)=C3C(=O)c4c(O)cccc4[C@@](C)(O)[C@H]3C[C@@H]12 [tetracycline] | – | – | – | – | – | – | – | cell viability, LB grown (A. baumannii; 4-16 μg ml^−1 tetracycline, LB): < 1×10^1 colony forming units
CN(C)c1cc(NC(=O)CNC(C)(C)C)c(O)c2c1C[C@H]1C[C@H]3[C@H](N(C)C)C(O)=C(C(N)=O)C(=O)[C@@]3(O)C(O)=C1C2=O [tigecycline] | – | – | – | – | – | – | – | concentration with clear antimicrobial activity (A. baumannii; strain 01-12-05, LB medium): ≥ 1 µg/mL; susceptibility during growth in serum (A. baumannii; strain 01-12-05, human serum): highly-resistant
phenylalanine arginine beta naphthylamide [PAβN, reference compound] | significantly increased cellular ethidium bromide accumulation | – | – | – | – | – | – | restoration of tetracycline susceptibility in serum (A. baumannii; serum grown, efflux pump inhibitor present): partially restored
COC(=O)[C@H]1[C@H]2C[C@@H]3c4[nH]c5cc(OC)ccc5c4CCN3C[C@H]2C[C@@H](OC(=O)c2cc(OC)c(OC)c(OC)c2)[C@@H]1OC [reserpine] | – | – | – | – | – | – | – | restoration of tigecycline susceptibility in serum (A. baumannii; strain 01-12-05, addition of efflux pump inhibitor): partially restored; restoration of ciprofloxacin susceptibility in serum (A. baumannii; strain 98-37-09, serum supplemented with efflux pump inhibitor): Ciprofloxacin susceptibility could be restored
COC(=O)c1ccccc1NC(=O)CN1C(=O)c2ccccc2S1(=O)=O [ST058165] | – | 6.27 | 32 | 1.11E−04 | (1.53) log | Yes | No | % Viability (human HepG2 cells): 76.9%
CC(C)(C)NC(=O)CSc1nnnn1C(C)(C)C [ST060273] | significantly increased signal | 6.53 | 32 | 6.84E−06 | (4.36) log | Yes | Yes | % Viability (human HepG2 cells; human, 48 h, 4 ×MEC): 90.1%; cellular ethidium fluorescence compared with PAβN [1]: essentially identical to those of PAβN until approximately 35 min post-treatment
C[N+](C)(C)CCOC(N)=O [Carbachol, carbamylocholine chloride] | – | – | – | – | – | – | – | increase in cytoplasmic Ca^2+ levels [5]: approximately 2.3 fold
NS(=O)(=O)c1ccc(/N=C/c2ccc(Cl)cc2)cc1 [ST009675] | significantly increased signal | 6.73 | 2 | 5.88E−04 | (2.28) log | Yes | Yes | % Viability (human HepG2 cells; human, 48 h, 4 ×MEC): 96.6%; Potentiate Ciprofloxacin P. aeruginosa (P. aeruginosa PA01; listed as ABEPI1): potentiated the activity of ciprofloxacin; cellular ethidium fluorescence compared with PAβN [1]: levels exceeding that of PABN within the first 20 min of treatment
COc1cc(C(=O)Nc2ccccc2C(=O)NCC2CCCO2)cc(OC)c1OC (stereo not shown) [ST060053] | – | 4.94 | 4 | 1.78E−04 | – | No | – | % Viability (human HepG2 cells): 76.11%
